Laboratory results published in patent US7097967B2, “Method of predicting drug-food interaction” (LG Life Sciences Ltd., priority 2002, dated 2006).
Structures can show the parent of a compound that is named as a salt. Where two headings read alike, the source gives them in different places.

Legend:
Trypsin [1] = target: T1, Trypsin (Bos taurus, UniProt P00760); assay: Measurement of activities of Drug A and its prodrugs to trypsin (chromogenic substrate, Ki); type: biochemical; conditions: tris buffer pH 7.8, N-benzoyl-Val-Gly-Arg-p-nitroanilide substrate, room temperature; read-out: Trypsin inhibition constant
T1 construct: gene PRSS1
T1 sequence (P00760 24-246): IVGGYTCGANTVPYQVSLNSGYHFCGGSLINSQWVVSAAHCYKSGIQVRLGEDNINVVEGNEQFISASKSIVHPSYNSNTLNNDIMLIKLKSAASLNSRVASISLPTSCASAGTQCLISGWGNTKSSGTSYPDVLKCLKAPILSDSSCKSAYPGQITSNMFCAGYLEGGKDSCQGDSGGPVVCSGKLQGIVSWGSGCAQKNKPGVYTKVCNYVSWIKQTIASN
Description: 140 μl of 0.1 M tris buffer solution (pH 7.8) containing 150 mM NaCl and 0.1% PEG 8000 (PolyEthylene Glycol, Molecular Weight: about 8,000) was pipetted into a microplate. A substrate solution was prepared by dissolving N-benzoyl-Val-Gly-Arg-p-nitroanilide hydro-chloride in DMSO to a concentration of 10 mM, and then diluting the resultant with the above buffer solution to a concentration of 0.5 mM. 20 μl of 0.5 mM substrate solution obtained thus was added to the microplate. An inhibitor solution was prepared by dissolving the inhibitor compound according to the present invention in DMSO to make the concentration of 10 mM, and then diluting the resultant with the above buffer solution to make the concentrations of 100000 nM, 10000 nM, 1000 nM, 100 nM, 10 nM, 1 nM, 0.1 nM, 0.01 nM and 0 nM, respectively. 20 μl of each inhibitor solution was adjusted to whole volume of 180 μl and then added to the microplate.
Trypsin which had been dissolved in 0.1 N HCl solution was added to the above tris buffer, just before the experiment, to make the concentration of 1 μg/ml, and 20 μl of solution obtained thus was added to the microplate containing the reaction solution at the room temperature. The amount of para-nitroaniline produced for 10 minutes after addition of enzymes was monitored by the light. The absorbance was plotted against the reaction time. Such graphs were obtained by performing the above experiment on the various concentrations of inhibitor.
Activities of Drug A and several prodrugs to trypsin were measured by determining the dissociation constant Ki, using the following formula according to the method described in Methods in Enzymology (V.80 p341–361; Biochemistry 27 p2144–2151,1988) Ki=[E]·[I]/[EI] • [E]: concentration of enzyme not bound to inhibitor • [I]: concentration of inhibitor not bound to enzyme • [EI]: concentration of binding product of enzyme and inhibitor
Such dissociation constant can be obtained by reacting with para-nitroanilide, which is chromogenic upon hydrolysis by the action of trypsin, and then measuring the extent of chromogenicity with time by spectroscopy.
The initial velocity, Vi, was obtained from the best-fit slope for the first 30 seconds after the reaction start time for each plot, and then a graph of the concentration of inhibitor versus the inverse of the initial velocity (1/Vi) was constructed. Thereafter, the linear function, which satisfies the graph, was calculated, and then Ki was calculated from the x-intercept of the above function using the enzymatic reaction formula. Km used in this calculation was obtained by changing the concentration of substrate at the constant enzyme concentration of […].

[2] = dog, cited from earlier work
thrombin = thrombin (Homo sapiens, UniProt P00734); conditions: cited from earlier work
Trypsin [3] = target: T1, Trypsin; conditions: cited from earlier work
[4] = cited from earlier work
[5] = human subjects, oral; cited from earlier work
[6] = rats, oral; cited from earlier work
[7] = Effect of composition of food on bioavailability of Drug A in dog; type: in vivo; conditions: dogs; for bioavailability: dog, plasma, po
Description: A solution in which 5 g of starch dispersed in 40 ml of water, 40 ml of egg albumin, and a solution in which 5 g of Gelucire® (44/14) dispersed in 40 ml of water, respectively, were fed to two dogs […] before administration of Drug A. These dogs (8–11 kg, Covance Research Product corporation, MI, U.S.A) were bred in a standard laboratory cage, adjusted for a temperature (22±3° C.) and humidity (50±20%), with feed and water available ad libitum. The dogs were fasted for 18–20 hours prior to this experiment. The test group for ascertaining the effect of foods was provided with foods 1 hour before administration of a drug, and the drug was administered after ingestion of foods. At a previously fixed time after administration, 500 μl of blood was gathered from the cephalic vein using the heparinized syringe, and the blood plasma was separated by a centrifuge, and then the plasma concentration of the drug was measured by HPLC analysis.
A Shiseido Capcell-Pak C18 reverse phase column was used for the drug-detection, employing a Shimadzu HPLC system (Class-LC10A system control software, CBM-10A communication bus module, two LC-10AD pumps, SIL-10AXL autoinjector with sample cooler, SPD-10AV ultraviolet detector). The mobile phase was acetonitrile : 0.1% trifluoroacetic acid /5 mM sodium dodecyl sulfate=47 : 53 and the flow rate was 1 ml/min. Data, obtained after oral administration, was expressed in a graph of drug concentration versus time, and applied to the non-compartment model using Win-Nonlin program (Scientific Consultion Corporation, NC, U.S.A.), whereby pharmacokinetic parameters such as a half-life (t1/2), maximum concentration (Cmax), time of the maximum concentration (Tmax), AUCinf, AUClast, and bioavailability (BA) were calculated. AUC was obtained by applying the trapezoidal rule-extrapolation method, and BA was calculated by using the formula (AUCPO×DoseIV)/(AUCIV×DosePO). The result of the experiment is disclosed in FIG. 1 and TABLE 2.

CCOC(=O)CN[C@@H](C(=O)N1CCC[C@H]1C(=O)NCc1ccc(/C(N)=N/C(=O)OCC(C)C)s1)C(c1ccccc1)c1ccccc1 [Prodrug 1]
Ki (Trypsin [1]): 0.673 µM

CCOC(=O)CN[C@@H](C(=O)N1CCC[C@H]1C(=O)NCc1ccc(/C(N)=N/O)s1)C(c1ccccc1)c1ccccc1 [Prodrug 3]
Ki (Trypsin [1]): 5.49 µM

NCCCC[C@H](NC(=O)C1(C(=O)NCCc2ccccc2)CCCC1)B(O)O [Prodrug S-31922, 5-amino-1-R-(1phenethyl-carbamoyl-cyclopentanecaraboxamide) pentyl boronic acid]
bioavailability ([2]; after meals): 22%
bioavailability ([2]; fasting state): 36%
IC50 (thrombin): 43 nM
IC50 (Trypsin [3]): 340 nM

CCOC(=O)CN[C@@H](C(=O)N1CCC[C@H]1C(=O)NCc1ccc(/C(N)=N/OC(C)=O)s1)C(c1ccccc1)c1ccccc1 [Prodrug 2]
Ki (Trypsin [1]): 21.3 µM

CC(=O)N[C@H](Cc1ccccc1)C(=O)N(CC(=O)N[C@@H](CCCN=C(N)N)B(O)O)C1CCCC1 [Prodrug S-18326, Ac-D-Phe-N-cyclopentylglycine-boroArg-OH]
bioavailability ([2]; after meals): 6%
bioavailability ([2]; fasting state): 27%
IC50 (thrombin): 3.6 nM
IC50 (Trypsin [3]): 20 nM

CCOC(=O)CN[C@@H](C(=O)N1CCC[C@H]1C(=O)NCc1ccc(/C(N)=N/C(=O)OCC2CCCCC2)s1)C(c1ccccc1)c1ccccc1 [Prodrug 4]
Ki (Trypsin [1]): 21 µM

CC(C)(C)NC(=O)[C@@H]1CN(Cc2cccnc2)CCN1C[C@@H](O)C[C@@H](Cc1ccccc1)C(=O)N[C@H]1c2ccccc2C[C@H]1O [Indinavir, [1(1S,2R), 5(S)]-2,3,5-trideoxy-N-(2,3-dihydro-2-hydroxy-1H-inden-1-yl)-5-[2-[[(1,1-dimethylethylaminocarbonyl)-4-(3-pyridinylmethyl)-1-piperazinyl]-2-(phenylmethyl)-D-erytho-pentonamide sulfate (1:1) salt]
absorption rate when administered together with foods [4]: absorption rate decreases

N=C(N)NCCCC(C=O)NC(=O)C1CCCN1C(=O)C1NCCC2CCCCC21 (stereo not drawn) [R-Piq-Pro-Arg-H]
bioavailability after intake of foods [5]: decreases remarkably
bioavailability after administration of foods [6]: decreases remarkably

N=C(N)c1ccc(CNC(=O)[C@@H]2CCCN2C(=O)[C@H](NCC(=O)O)C(c2ccccc2)c2ccccc2)s1 [Drug A, (2S)-N-{5-[amino(imino)methyl]-2-thienyl}methyl-1-{(2R)-2-[(carboxylmethyl)amino]-3,3-diphenylpropanol}-2-pyrrolidincarboxamide]
bioavailability ([7]; in fasting state): 43%
bioavailability ([7]; oral, after intake of Gelucire (lipid)): 20%
bioavailability ([7]; oral, after intake of egg albumin): 13%
bioavailability ([7]; oral, after intake of starch): 41%
bioavailability after ingestion of foods ([7]; after ingestion of foods): decreased markedly
Ki (Trypsin [1]): 0.0003 µM
